Literature values as cited in US12691176B2, “Ionic nanovesicle suspension and biocide prepared therefrom” (priority 2015, dated 2026).

Experiments:
bacteria = conditions: very low concentrations

Polyaminopropyl biguanide [PAPB]
bactericidal concentration (bacteria): 10 mg/L | fungicidal activity (fungi): fungicidal
